According to patent publication US20210386068A1, “COMPOSITIONS COMPRISING PYRIDINE CARBOXYLATE HERBICIDES AND VERY LONG CHAIN FATTY ACID (VLCFA) SYNTHESIS INHIBITOR HERBICIDES” (priority 2018, published 2021):
“And” between values parts separate entries of the source, which are not always exact repeats. Identical values can stand only once.

Assays:
[1] = test system: Polygonum convolvulus (wild buckwheat, POLCO); assay: Greenhouse postemergence herbicidal effect, visual injury 20-22 d after spraying, wild buckwheat (POLCO); type: in vivo
Excerpt: (§1) Seeds of the desired test plant species were planted in a 90:10% v/v (volume/volume) mixture of PRO-MIX® BX (Premier Tech Horticulture, Quakertown, Pa., USA) and PROFILE® GREENS GRADE™ (Profile Products LLC, Buffalo Grove, Ill., USA) planting mixture, which typically has a pH of 5.2 to 6.2 and an organic matter content of at least 50 percent, in plastic pots with a surface area of 103.2 square centimeters (cm^2). In some aspects, to ensure good germination and healthy plants, a fungicide treatment and/or other chemical or physical treatment was applied. The plants were grown for 7-36 days (d) in a greenhouse with an approximate 14-hour (h) photoperiod which was maintained at about 23° C. during the day and 22° C. during the night. Nutrients and water were added on a regular basis and supplemental lighting was provided with overhead metal halide 1000-Watt lamps as necessary. The plants were employed for testing when they reached the second or third true leaf stage.
(§2) Emulsifiable concentrates of each of each pyridine carboxylate herbicide (Compound A or Compound B) were prepared at 100 grams acid equivalent per liter (g ae/L). The emulsifiable concentrates also included a safener, cloquintocet-mexyl, at 120 grams active ingredient per liter (g ai/L). An aliquot of each emulsifiable concentrate was placed in a 25 mL glass vial and diluted with an aqueous mixture of 1.25% (v/v) ACTIROB® B esterified rapeseed oil (Bayer Crop Science, Research Triangle Park, N.C., USA) or MSO® Concentrate with LECI-TECH® methylated soybean oil (Loveland Products, Loveland, Colo., USA) to obtain concentrated stock solutions at the highest application rate for each herbicide, based upon a 12 milliliter (mL) application volume at a rate of 187 liters per hectare (L/ha). The concentrated stock solutions were further diluted with an aqueous mixture of 1.25% v/v ACTIROB® B or MSO® Concentrate with LECI-TECH® to obtain stock solutions at reduced application rates for each herbicide. Spray solutions of the herbicide combinations (Compound A or Compound B plus VLCFA synthesis inhibitor herbicide) were prepared by adding weighed amounts or aliquots of the VLCFA synthesis inhibitor herbicide to the stock solutions of Compound A or Compound B to form 12-mL spray solutions in two-way combinations.
(§3) The spray solutions were applied to the plant material with an overhead Mandel track sprayer equipped with 8002E nozzles calibrated to deliver 187 L/ha over an application area of 0.503 square meters (m^2) at a spray height of 18 inches ([…] (cm)) above the average plant canopy. Control plants were sprayed in the same manner with the solvent blank. All pyridine carboxylate herbicide (component a) application rates are given as “g ae/ha” and all VLCFA synthesis inhibitor herbicide (component b) application rates are given as “g ai/ha.”
(§4) The treated plants and control plants were placed in a greenhouse as described above and watered by sub-irrigation to prevent wash-off of the test compounds. After 20-22 d, the condition of the test plants as compared with that of the control plants was determined visually and scored on a scale of 0 to 100 percent where 0 corresponds to no injury and 100 corresponds to complete kill.

[2] = test system: Salsola kali (Russian thistle, SASKR); assay: Greenhouse postemergence herbicidal effect, visual injury 20-22 d after spraying, Russian thistle (SASKR); type: in vivo; details: for % visual injury Obs: SASKR
Excerpt: as §1, §2, §3, §4

[3] = test system: Kochia scoparia (kochia, KCHSC); assay: Greenhouse postemergence herbicidal effect, visual injury 20-22 d after spraying, kochia (KCHSC); type: in vivo; details: for % visual injury Obs: KCHSC
Excerpt: as §1, §2, §3, §4

[4] = test system: Amaranthus retroflexus (pigweed, AMARE); assay: Greenhouse postemergence herbicidal effect, visual injury 20-22 d after spraying, pigweed (AMARE); type: in vivo
Excerpt: as §1, §2, §3, §4

[5] = test system: Helianthus annuus (common sunflower, HELAN); assay: Greenhouse postemergence herbicidal effect, visual injury 20-22 d after spraying, common sunflower (HELAN); type: in vivo
Excerpt: as §1
Emulsifiable concentrates of each of each pyridine carboxylate herbicide (Compound A or Compound B) were prepared at 100 grams acid equivalent per liter (g ae/L). The emulsifiable concentrates also included a safener, cloquintocet-mexyl, at 120 grams active ingredient per liter (g ai/L). […]
as §4

[6] = test system: Brassica napus (spring rape, BRSNN); assay: Greenhouse postemergence herbicidal effect, visual injury 20-22 d after spraying, spring rape (BRSNN); type: in vivo
Excerpt: as §1, §2, §3, §4

[7] = test system: Capsella bursa-pastoris (shepherd's purse, CAPBP); assay: Greenhouse postemergence herbicidal effect, visual injury 20-22 d after spraying, shepherd's purse (CAPBP); type: in vivo
Excerpt: as §1, §2, §3, §4

[8] = test system: Veronica hederifolia (ivy-leaved speedwell, VERHE); assay: Greenhouse postemergence herbicidal effect, visual injury 20-22 d after spraying, ivy-leaved speedwell (VERHE); type: in vivo
Excerpt: as §1, §2, §3, §4

[9] = test system: Matricaria inodora (scentless chamomile, MATIN); assay: Greenhouse postemergence herbicidal effect, visual injury 20-22 d after spraying, scentless chamomile (MATIN); type: in vivo
Excerpt: as §1, §2, §3, §4

[10] = test system: Matricaria discoidea (pineapple weed, MATMT); assay: Greenhouse postemergence herbicidal effect, visual injury 20-22 d after spraying, pineapple weed (MATMT); type: in vivo
Excerpt: as §1, §2, §3, §4

[11] = test system: Stellaria media (common chickweed, STEME); assay: Greenhouse postemergence herbicidal effect, visual injury 20-22 d after spraying, common chickweed (STEME); type: in vivo
Excerpt: as §1, §2, §3, §4

winter wheat (TRZAW) = assay: Greenhouse postemergence crop phytotoxicity, visual injury 20-22 d after spraying, winter wheat (TRZAW); type: in vivo, Triticum aestivum
Excerpt: as §1, §2, §3, §4

winter barley (HORVW) = assay: Greenhouse postemergence crop phytotoxicity, visual injury 20-22 d after spraying, winter barley (HORVW); type: in vivo, Hordeum vulgare
Excerpt: as §1, §2, §3, §4

## N#CCOC(=O)c1nc(-c2ccc3cc[nH]c3c2F)c(F)c(N)c1Cl [Compound A, cyanomethyl 4-amino-3-chloro-5-fluoro-6-(7-fluoro-1H-indol-6-yl)pyridine-2-carboxylate]
[1]; Compound A 7.5 g/ha
  % visual injury POLCO Obs: 65%
[1]; Compound A 10 g/ha
  % visual injury POLCO Obs: 78%
[1]; Compound A 15 g/ha
  % visual injury POLCO Obs: 85%
[2]; Compound A 7.5 g/ha
  % visual injury SASKR Obs: 50%
[2]; Compound A 10 g/ha
  % visual injury SASKR Obs: 60%
[2]; Compound A 15 g/ha
  % visual injury SASKR Obs: 63%
[2]; Compound A 7.5 g/ha alone
  % visual injury Obs: 60% and 45% and 38%
[2]; Compound A 10 g/ha alone
  % visual injury Obs: 63% and 60%
[3]; Compound A 7.5 g/ha
  % visual injury KCHSC Obs: 63%
[3]; Compound A 10 g/ha
  % visual injury KCHSC Obs: 65%
[3]; Compound A 15 g/ha
  % visual injury KCHSC Obs: 63%
[3]; Compound A 7.5 g/ha alone
  % visual injury Obs: 63% and 50% and 70%
[3]; Compound A 10 g/ha alone
  % visual injury Obs: 63% and 58% and 55% and 70%
[4]; Compound A 7.5 g/ha alone
  % visual injury Obs: 78% and 80% and 70% and 90%
[4]; Compound A 10 g/ha alone
  % visual injury Obs: 73% and 85% and 98%
[5]; Compound A 7.5 g/ha alone
  % visual injury Obs: 83%
[5]; Compound A 10 g/ha alone
  % visual injury Obs: 88%
[6]; Compound A 7.5 g/ha alone
  % visual injury Obs: 55%
[6]; Compound A 10 g/ha alone
  % visual injury Obs: 60% and 70%
[7]; Compound A 7.5 g/ha
  % visual injury CAPBP Obs: 45%
[7]; Compound A 10 g/ha
  % visual injury CAPBP Obs: 55%
[7]; Compound A 15 g/ha
  % visual injury CAPBP Obs: 55%
[8]; Compound A 7.5 g/ha
  % visual injury VERHE Obs: 68%
[8]; Compound A 10 g/ha
  % visual injury VERHE Obs: 73%
[8]; Compound A 15 g/ha
  % visual injury VERHE Obs: 75%
[9]; Compound A 7.5 g/ha
  % visual injury MATIN Obs: 55%
[9]; Compound A 10 g/ha
  % visual injury MATIN Obs: 60%
[9]; Compound A 15 g/ha
  % visual injury MATIN Obs: 83%
[10]; Compound A 7.5 g/ha
  % visual injury MATMT Obs: 20%
[10]; Compound A 10 g/ha
  % visual injury MATMT Obs: 20%
[10]; Compound A 15 g/ha
  % visual injury MATMT Obs: 63%
[11]; Compound A 7.5 g/ha
  % visual injury STEME Obs: 85%
[11]; Compound A 10 g/ha
  % visual injury STEME Obs: 88%
[11]; Compound A 15 g/ha
  % visual injury STEME Obs: 89%
Winter wheat (TRZAW); Compound A 7.5 g/ha
  % visual injury TRZAW Obs: 0%
Winter wheat (TRZAW); Compound A 10 g/ha
  % visual injury TRZAW Obs: 0%
Winter wheat (TRZAW); Compound A 15 g/ha
  % visual injury TRZAW Obs: 0%
Winter barley (HORVW); Compound A 7.5 g/ha
  % visual injury HORVW Obs: 0%
Winter barley (HORVW); Compound A 10 g/ha
  % visual injury HORVW Obs: 0%
Winter barley (HORVW); Compound A 15 g/ha
  % visual injury HORVW Obs: 0%
